# Tests used:
# [1] = tested on: Chrysanthemum indicum (Variety: Yellow Delaware); assay: Combating iron deficiency/leaf uptake test; type: in vivo
# Experimental: Test plant: Chrysanthemum indicum (Variety: Yellow Delaware)
# Culture substrate: Mixture of polystyrene foam flock (Styromull) and potassium alginate in the volume ratio of 10:1
# To prepare a suitable formulation of the active compound, the particular amount of active compound desired was dissolved in water.
# Test plants were grown in a culture substrate of the composition indicated above, fertilization and watering being effected by adding, twice weekly, a mineral-iron-deficient nutrient solution according to Hoagland and Arnon (Circular 347, College of Agriculture, University of California, Berkeley 1950). […] After 2 days the plants were again sprayed with the active compound formulation in the same manner.
# The evaluation took place when an average of 2 leaves had newly formed on the plants treated with an optimum amount of a water-soluble, commercially available iron fertilizer, in each case, the average number of newly formed leaves was determined on all test plants. Furthermore, the intensity of the green colour of newly formed leaves was rated and expressed as a numerical code.
# In this, the figures denoted:
# 1=0% chlorotic (dark green)
# 9=100% chlorotic (corresponding to the untreated control plants)
# [2] = Water solubility of the preparation; type: physicochemical
# [3] = nutrient preparation in the spray liquor 0.13 %
# [4] = nutrient preparation in the spray liquor 0.62 %
# [5] = nutrient preparation in the spray liquor 0.03 %
# [6] = nutrient preparation in the spray liquor 0.15 %
# [7] = nutrient preparation in the spray liquor 0.74 %
# [8] = nutrient preparation in the spray liquor 0.66 %
# [9] = nutrient preparation in the spray liquor 0.12 %
# [10] = nutrient preparation in the spray liquor 0.59 %
# [11] = nutrient preparation in the spray liquor 0.16 %
# [12] = nutrient preparation in the spray liquor 0.78 %
# [13] = nutrient preparation in the spray liquor 0.14 %
structure (smiles),measurement,setting,value
"CCCCCC(=O)[c-]1cccc1.[Fe+2].c1cc[cH-]c1 [Example 4, n-hexanoylferrocene]",Average number of newly formed leaves,[1]; [3],3
same,Intensity of the green colour of young leaves,[1]; [3],3 (25% chlorotic)
same,Average number of newly formed leaves,[1]; [4],3
same,Intensity of the green colour of young leaves,[1]; [4],2-3
same,Water solubility of the preparation,[2],slight
"CCCCCCCCC(=O)[c-]1cccc1.[Fe+2].c1cc[cH-]c1 [Example 7, n-nonaoylferrocene]",Average number of newly formed leaves,[1]; [5],4
same,Intensity of the green colour of young leaves,[1]; [5],3 (25% chlorotic)
same,Average number of newly formed leaves,[1]; [6],5
same,Intensity of the green colour of young leaves,[1]; [6],2-3
same,Average number of newly formed leaves,[1]; [7],5
same,Intensity of the green colour of young leaves,[1]; [7],2
same,Water solubility of the preparation,[2],slight
"CCCCCCC(=O)[c-]1cccc1.[Fe+2].c1cc[cH-]c1 [Example 5, n-heptanoylferrocene]",Average number of newly formed leaves,[1]; [3],4
same,Intensity of the green colour of young leaves,[1]; [3],3 (25% chlorotic)
same,Average number of newly formed leaves,[1]; [8],4
same,Intensity of the green colour of young leaves,[1]; [8],2-3
same,Water solubility of the preparation,[2],slight
"CCCCC(=O)[c-]1cccc1.[Fe+2].c1cc[cH-]c1 [Example 3, n-pentanoylferrocene]",Average number of newly formed leaves,[1]; [9],4
same,Intensity of the green colour of young leaves,[1]; [9],2-3
same,Average number of newly formed leaves,[1]; [10],4
same,Intensity of the green colour of young leaves,[1]; [10],2
same,Water solubility of the preparation,[2],slight
"CCCCCCCCCC(=O)[c-]1cccc1.[Fe+2].c1cc[cH-]c1 [Example 2, n-decanoyl-ferrocene]",Average number of newly formed leaves,[1]; [5],4
same,Intensity of the green colour of young leaves,[1]; [5],3 (25% chlorotic)
same,Average number of newly formed leaves,[1]; [11],5
same,Intensity of the green colour of young leaves,[1]; [11],2-3
same,Average number of newly formed leaves,[1]; [12],5
same,Intensity of the green colour of young leaves,[1]; [12],2
same,Water solubility of the preparation,[2],slight
"CCCCCCCC(=O)[c-]1cccc1.[Fe+2].c1cc[cH-]c1 [Example 6, n-octanoylferrocene]",Average number of newly formed leaves,[1]; [5],4
same,Intensity of the green colour of young leaves,[1]; [5],3 (25% chlorotic)
same,Average number of newly formed leaves,[1]; [13],5
same,Intensity of the green colour of young leaves,[1]; [13],2-3
same,Water solubility of the preparation,[2],slight

# — US4167405A, “Fertilizers for supplying plants with iron” (Bayer Aktiengesellschaft, priority 1977, dated 1979)
